The target in one assay is human plasma kallikrein (Homo sapiens (Human), UniProt P03952). As to the kind of experiment: Kallikrein inhibition assay (FLINT) utilizing a quenched AMC peptide substrate. Conditions: 30 min preincubation, kinetic reads over 30 min, Z-Gly-Pro-Arg-AMC substrate 50 μM; read-out: Kallikrein Kin Inh IC50. The class given is biochemical. The gist of the method: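 Enzyme (2 nM final) pre-incubated 30 min at room temperature with compound (11-point, 3-fold, top 1 μM, 2% DMSO), then 50 μM Z-Gly-Pro-Arg-AMC added in Tris pH 7.5 buffer. Kinetic fluorescence 340/440 nm every 5 min over 30 min; IC50 from 4-parameter logistic fit.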
Chain of human plasma kallikrein (P03952 391-638): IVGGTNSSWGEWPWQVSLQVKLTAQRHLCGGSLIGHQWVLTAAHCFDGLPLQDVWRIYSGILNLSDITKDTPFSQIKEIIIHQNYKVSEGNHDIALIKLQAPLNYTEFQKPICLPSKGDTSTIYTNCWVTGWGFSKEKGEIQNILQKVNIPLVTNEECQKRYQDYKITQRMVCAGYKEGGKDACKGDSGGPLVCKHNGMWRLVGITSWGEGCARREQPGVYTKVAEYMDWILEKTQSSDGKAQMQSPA
Chain of human plasma kallikrein (P03952 20-390 partner): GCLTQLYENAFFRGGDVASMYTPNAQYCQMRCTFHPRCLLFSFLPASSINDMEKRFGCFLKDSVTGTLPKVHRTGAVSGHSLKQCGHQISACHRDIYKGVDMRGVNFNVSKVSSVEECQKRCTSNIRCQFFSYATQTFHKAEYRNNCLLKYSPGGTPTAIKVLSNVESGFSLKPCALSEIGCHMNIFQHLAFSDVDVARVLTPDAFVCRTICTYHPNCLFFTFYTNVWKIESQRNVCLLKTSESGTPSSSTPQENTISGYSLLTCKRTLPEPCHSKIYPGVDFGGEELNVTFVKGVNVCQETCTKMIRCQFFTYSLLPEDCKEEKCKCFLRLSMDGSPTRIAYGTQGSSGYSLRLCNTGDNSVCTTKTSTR

Another assay deals with Factor XIa (Homo sapiens (Human), UniProt P03951). As to the kind of experiment: Factor XIa inhibition assay (FLINT) utilizing a fluorophore-quencher pair peptide substrate. Format: biochemical. Conditions: 30 min preincubation, kinetic reads over 30 min, 5Fam-KLTRAETV-K5Tamra substrate 15 μM; read-out: FXIa Kin Inh IC50. The gist of the method:
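FXIa ([…]) preincubated 30 min with compound (11-point 3-fold dilution, top 100 nM, 2% DMSO), then 15 μM quenched FXI Arg146-based peptide added; Tris pH 7.5, CaCl2, BSA, CHAPS. Fluorescence 485/520 nm read kinetically every 5 min over 30 min at RT; IC50 by 4-parameter fit.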

Molecules are shown by their SMILES.

Chain of Factor XIa (P03951 388-625): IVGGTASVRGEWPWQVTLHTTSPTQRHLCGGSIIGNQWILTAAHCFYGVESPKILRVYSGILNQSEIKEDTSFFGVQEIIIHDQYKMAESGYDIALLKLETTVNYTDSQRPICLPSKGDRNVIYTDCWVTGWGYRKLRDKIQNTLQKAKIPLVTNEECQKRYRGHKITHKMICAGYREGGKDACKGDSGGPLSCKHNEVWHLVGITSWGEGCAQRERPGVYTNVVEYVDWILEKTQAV
Chain of Factor XIa (P03951 19-387 partner): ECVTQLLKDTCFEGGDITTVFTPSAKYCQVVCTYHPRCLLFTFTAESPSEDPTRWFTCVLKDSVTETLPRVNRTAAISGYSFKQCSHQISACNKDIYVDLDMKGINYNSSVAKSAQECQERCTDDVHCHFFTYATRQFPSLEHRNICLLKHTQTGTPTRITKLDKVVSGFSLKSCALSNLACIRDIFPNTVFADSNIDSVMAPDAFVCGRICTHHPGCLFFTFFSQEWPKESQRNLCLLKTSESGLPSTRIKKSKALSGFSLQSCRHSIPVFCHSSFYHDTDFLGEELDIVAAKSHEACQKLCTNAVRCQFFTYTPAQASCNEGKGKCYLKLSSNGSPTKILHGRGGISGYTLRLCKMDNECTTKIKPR

For orientation: IC50 means the midpoint of a concentration-inhibition curve. As to `C[C@@H](Oc1nccc(-c2cnc([C@@H]3CC[C@@H]4CC(c5c(-n6cnnn6)ccc(Cl)c5F)=CC(=O)N43)[nH]2)c1F)c1ncco1` (single isomer, unassigned) [Example 141, (3*S,8a*R)-7-(3-chloro-2-fluoro-6-(1H-tetrazol-1-yl)phenyl)-3-(5-(3-fluoro-2-((*R)-1-(oxazol-2-yl)ethoxy)pyridin-4-yl)-1H-imidazol-2-yl)-2,3,8,8a-tetrahydroindolizin-5(1H)-one], the values for the IC50 on human plasma kallikrein and at Factor XIa were 13 nM and 10.8 nM, respectively.
As for `C[C@H](Oc1nccc(-c2cnc([C@@H]3CC[C@@H]4CC(c5c(-n6cnnn6)ccc(Cl)c5F)=CC(=O)N43)[nH]2)c1F)c1ncco1` (single isomer, unassigned) [Example 142, (3*S,8a*R)-7-(3-chloro-2-fluoro-6-(1H-tetrazol-1-yl)phenyl)-3-(5-(3-fluoro-2-((*S)-1-(oxazol-2-yl)ethoxy)pyridin-4-yl)-1H-imidazol-2-yl)-2,3,8,8a-tetrahydroindolizin-5(1H)-one], the IC50 turned out to be 10.7 nM at human plasma kallikrein and 6.2 nM on Factor XIa.
As for `O=C1C=C(c2c(-n3cnnn3)ccc(Cl)c2F)C[C@H]2CC[C@@H](c3ncc(-c4ccnc(C[C@H](O)C(F)(F)F)c4F)[nH]3)N12` (single isomer, unassigned) [Example 143, (3S,8aR)-7-(3-chloro-2-fluoro-6-(1H-tetrazol-1-yl)phenyl)-3-(5-(3-fluoro-2-((*S)-3,3,3-trifluoro-2-hydroxypropyl)pyridin-4-yl)-1H-imidazol-2-yl)-2,3,8,8a-tetrahydroindolizin-5(1H)-one], the IC50 on human plasma kallikrein came to 33 nM; at Factor XIa, 2.4 nM.
With `O=C1C=C(c2c(-n3cnnn3)ccc(Cl)c2F)C[C@H]2CC[C@@H](c3ncc(-c4ccnc(C[C@@H](O)C(F)(F)F)c4F)[nH]3)N12` (single isomer, unassigned) [Example 144, (3S,8aR)-7-(3-chloro-2-fluoro-6-(1H-tetrazol-1-yl)phenyl)-3-(5-(3-fluoro-2-((*R)-3,3,3-trifluoro-2-hydroxypropyl)pyridin-4-yl)-1H-imidazol-2-yl)-2,3,8,8a-tetrahydroindolizin-5(1H)-one], the IC50 stood at 43.5 nM on human plasma kallikrein and 3.1 nM at Factor XIa.
As for `O=C1C=C(c2c(-n3cc(C(F)(F)F)nn3)ccc(Cl)c2F)C[C@H]2CC[C@@H](c3ncc(-c4ccc5[nH]c(=O)ccc5c4)[nH]3)N12` (single isomer, unassigned) [Example 152, 6-[2-[(3S,8a*R)-7-[3-chloro-2-fluoro-6-[4-(trifluoromethyl)triazol-1-yl]phenyl]-5-oxo-2,3,8,8a-tetrahydro-1H-indolizin-3-yl]-1H-imidazol-5-yl]-1H-quinolin-2-one], the IC50 on human plasma kallikrein amounted to 1 nM; at Factor XIa it was 0.7 nM.
The like results for `O=C1C=C(c2c(-n3cnnn3)ccc(Cl)c2F)C[C@H]2CC[C@@H](c3ncc(-c4ccnc(OC[C@@H]5COCCO5)c4F)[nH]3)N12` (single isomer, unassigned) [Example 157, (3*S,8aR)-3-(5-(2-(((S)-1,4-dioxan-2-yl)methoxy)-3-fluoropyridin-4-yl)-1H-imidazol-2-yl)-7-(3-chloro-2-fluoro-6-(1H-tetrazol-1-yl)phenyl)-2,3,8,8a-tetrahydroindolizin-5(1H)-one] were, in that order, 6.8 nM and 2 nM.
Take `CC(C)(O)CCc1nccc(-c2cnc([C@@H]3CC[C@@H]4CC(c5c(-n6cnnn6)ccc(Cl)c5F)=CC(=O)N43)[nH]2)c1F` (single isomer, unassigned) [Example 158, (3*S,8a*R)-7-(3-chloro-2-fluoro-6-(1H-tetrazol-1-yl)phenyl)-3-(5-(3-fluoro-2-(3-hydroxy-3-methylbutyl)pyridin-4-yl)-1H-imidazol-2-yl)-2,3,8,8a-tetrahydroindolizin-5(1H)-one]: the results for the IC50 on human plasma kallikrein and at Factor XIa were 7.8 nM and 1 nM, respectively.
In the case of `CC(C)(O)CCc1nccc(-c2cnc([C@@H]3CC[C@H]4CC(c5c(-n6cnnn6)ccc(Cl)c5F)=CC(=O)N43)[nH]2)c1F` (single isomer, unassigned) [Example 159, (3*S,8a*S)-7-(3-chloro-2-fluoro-6-(1H-tetrazol-1-yl)phenyl)-3-(5-(3-fluoro-2-(3-hydroxy-3-methylbutyl)pyridin-4-yl)-1H-imidazol-2-yl)-2,3,8,8a-tetrahydroindolizin-5(1H)-one], the IC50 was 22.2 nM at human plasma kallikrein and 5.4 nM on Factor XIa.
For the compound `O=C1C=C(c2c(-n3cnnn3)ccc(Cl)c2F)C[C@H]2CC[C@H](c3ncc(-c4ccnc(C5(O)CC5)c4F)[nH]3)N12` (single isomer, unassigned) [Example 162, (3*R,8aR)-7-(3-chloro-2-fluoro-6-(1H-tetrazol-1-yl)phenyl)-3-(5-(3-fluoro-2-(1-hydroxycyclopropyl)pyridin-4-yl)-1H-imidazol-2-yl)-2,3,8,8a-tetrahydroindolizin-5(1H)-one], the IC50 at human plasma kallikrein is 30.6 nM; on Factor XIa, 4.2 nM.
In the case of `NC(=O)Cc1nccc(-c2cnc([C@@H]3CC[C@@H]4CC(c5c(-n6cc(C(F)(F)F)nn6)ccc(Cl)c5F)=CC(=O)N43)[nH]2)c1F` (single isomer, unassigned) [Example 165, 2-(4-(24(3*S,8a*R)-7-(3-chloro-2-fluoro-6-(4-(trifluoromethyl)-1H-1,2,3-triazol-1-yl)phenyl)-5-oxo-1,2,3,5,8,8a-hexahydroindolizin-3-yl)-1H-imidazol-5-yl)-3-fluoropyridin-2-yl)acetamide], the IC50 on human plasma kallikrein came out at 123 nM; on Factor XIa, 8 nM.
As for `C[C@H](CO)Oc1nccc(-c2cnc([C@@H]3CC[C@@H]4CC(c5c(-n6cnnn6)ccc(Cl)c5F)=CC(=O)N43)[nH]2)c1F` (single isomer, unassigned) [Example 168, (3S,8a*R)-7-(3-chloro-2-fluoro-6-(1H-tetrazol-1-yl)phenyl)-3-(5-(3-fluoro-2-(((R)-1-hydroxypropan-2-yl)oxy)pyridin-4-yl)-1H-imidazol-2-yl)-2,3,8,8a-tetrahydroindolizin-5(1H)-one], the figures for the IC50 at human plasma kallikrein and at Factor XIa were 4.9 nM and 0.8 nM, respectively.
With `O=C1C=C(c2c(-n3cnnn3)ccc(Cl)c2F)C[C@@H]2CC[C@@H](c3ncc(-c4ccnc([C@H](O)C(F)(F)F)c4F)[nH]3)N12` (single isomer, unassigned) [Example 170], the IC50 on human plasma kallikrein worked out at 31.8 nM; at Factor XIa, 17.9 nM.
On to `O=C1C=C(c2c(-n3cnnn3)ccc(Cl)c2F)C[C@H]2CC[C@@H](c3ncc(-c4ccnc([C@@H](O)C(F)(F)F)c4F)[nH]3)N12` (single isomer, unassigned) [Example 171, (3*S,8a*R)-7-(3-chloro-2-fluoro-6-(1H-tetrazol-1-yl)phenyl)-3-(5-(3-fluoro-2-((*R)-2,2,2-trifluoro-1-hydroxyethyl)pyridin-4-yl)-1H-imidazol-2-yl)-2,3,8,8a-tetrahydroindolizin-5(1H)-one], for which the IC50 came out at 31.7 nM on human plasma kallikrein and 4.1 nM at Factor XIa.
Take `O=C1C=C(c2c(-n3cnnn3)ccc(Cl)c2F)C[C@@H]2CC[C@@H](c3nc(Cl)c(-c4ccnc([C@H](O)C(F)(F)F)c4)[nH]3)N12` (single isomer, unassigned) [Example 172, (3*S,8a*S)-7-(3-chloro-2-fluoro-6-(1H-tetrazol-1-yl)phenyl)-3-(4-chloro-5-(2-((*S)-2,2,2-trifluoro-1-hydroxyethyl)pyridin-4-yl)-1H-imidazol-2-yl)-2,3,8,8a-tetrahydroindolizin-5(1H)-one]: the IC50 at human plasma kallikrein came out at 6.1 nM; on Factor XIa it was 3.6 nM.
Taken in the same sequence, the figures for `O=C1C=C(c2c(-n3cnnn3)ccc(Cl)c2F)C[C@H]2CC[C@@H](c3ncc(-c4ccnc(CO)c4F)[nH]3)N12` (single isomer, unassigned) [Example 194, (3*S,8a*R)-7-(3-chloro-2-fluoro-6-(1H-tetrazol-1-yl)phenyl)-3-(4-(3-fluoro-2-(hydroxymethyl-d2)pyridin-4-yl)-1H-imidazol-2-yl)-2,3,8,8a-tetrahydroindolizin-5(1H)-one] were 16.8 nM and 2.2 nM.
Consider `O=C(O)c1sc(-c2cnc([C@@H]3CC[C@@H]4CC(c5c(-n6cc(C(F)(F)F)nn6)ccc(Cl)c5F)=CC(=O)N43)[nH]2)cc1F` (single isomer, unassigned) [Example 195, 5-(2-((3*S,8aR)-7-(3-chloro-2-fluoro-6-(4-(trifluoromethyl)-1H-1,2,3-triazol-1-yl)phenyl)-5-oxo-1,2,3,5,8,8a-hexahydroindolizin-3-yl)-1H-imidazol-yl)-3-fluorothiophene-2-carboxylic acid], for which the results for the concentration for half-maximal inhibition (IC50) at human plasma kallikrein and at Factor XIa were 22.1 nM and 0.5 nM, respectively.
Take `NC(=O)c1cc(-c2cnc([C@@H]3CC[C@@H]4CC(c5c(-n6cnnn6)ccc(Cl)c5F)=CC(=O)N43)[nH]2)ccn1` (single isomer, unassigned) [Example 206]: the IC50 is 9.5 nM on human plasma kallikrein and 10.6 nM at Factor XIa.
On to `NC(=O)c1ncc(-c2c[nH]c([C@@H]3CC[C@H]4CC(c5c(-n6cc(C(F)(F)F)nn6)ccc(Cl)c5F)=CC(=O)N43)n2)s1` (single isomer, unassigned) [Example 209], for which the IC50 at human plasma kallikrein was 37.9 nM; on Factor XIa it was 46.5 nM.
On to `NC(=O)c1ncc(-c2c[nH]c([C@@H]3CC[C@@H]4CC(c5c(-n6cc(C(F)(F)F)nn6)ccc(Cl)c5F)=CC(=O)N43)n2)s1` (single isomer, unassigned) [Example 210], for which the values for the IC50 on human plasma kallikrein and on Factor XIa were 20.7 nM and 9.3 nM, respectively.
`NC(=O)c1ccc(-c2cnc([C@@H]3CC[C@@H]4CC(c5c(-n6cc(C(F)(F)F)nn6)ccc(Cl)c5F)=CC(=O)N43)[nH]2)cn1` (single isomer, unassigned) [Example 212]: the figures for the IC50 on human plasma kallikrein and on Factor XIa were 90.9 nM and 20.5 nM, respectively.
